Measurements reported in publication PMC12656239, “Aryl Hydrocarbon Receptor-Mediated Disruption of Intestinal Epithelial Barrier Integrity by Dioxin Isomers” (Toxics, 2025).

Molecular target: aryl hydrocarbon receptor (AhR) (Homo sapiens, UniProt P35869)
Assay: EROD induction in Caco-2 cells (endogenous AhR), abolished by AhR antagonist
Format: cell-based

## Clc1cc2c(cc1Cl)Oc1cc(Cl)c(Cl)cc1O2 [2,3,7,8-TCDD, 2,3,7,8-tetrachlorodibenzo-p-dioxin]
  EC50: 0.102 nM
